Test results: ChEMBL document CHEMBL5036348, “Identification and evaluation of 4-anilinoquin(az)olines as potent inhibitors of both dengue virus (DENV) and Venezuelan equine encephalitis virus (VEEV)” (Bioorg Med Chem Lett, 2021)

Tested on: dengue virus type 2
Experiment: Antiviral activity against DENV2 New Guinea C strain infected in human Huh7 cells assessed as reduction in viral infection measured after 48 hrs post infection by renilla luciferase assay relative to control
Assay type: functional, organism-based
Conditions: Huh-7, 48 h
For FC(F)(F)c1ccc2nccc(Nc3cccc(Cl)c3)c2c1, the EC50 was 7.9 µM. Compound COc1ccc(OC)c(Nc2ccnc3ccc(C(F)(F)F)cc23)c1 has an EC50 of 0.25 µM. With C#Cc1cccc(Nc2ncnc3cc(OC)ccc23)c1 the EC50 was over 10 µM. In the case of C#Cc1cc(Nc2ncnc3cc(I)ccc23)ccc1F, the EC50 is reported as over 10 µM. In the case of C#Cc1cccc(Nc2c(C#N)cnc3cc(OC)ccc23)c1, the EC50 is reported as 7.8 µM. In the case of CS(=O)(=O)c1cccc(Nc2ccnc3ccc(C(F)(F)F)cc23)c1, the EC50 is reported as over 10 µM. Fc1cc(Nc2ccnc3ccc(C(F)(F)F)cc23)ccc1Cl gave an EC50 of 4.1 µM. N#Cc1ccc(Nc2ccnc3ccc(C(F)(F)F)cc23)cc1 gave an EC50 of 9.8 µM. Fc1cc(Cl)cc(Nc2ccnc3ccc(C(F)(F)F)cc23)c1 gave an EC50 of 9.3 µM. For C#Cc1cccc(Nc2ncnc3ccc(OC)cc23)c1, the EC50 was 9.7 µM. For COc1ccc(Nc2ccnc3ccc(C(F)(F)F)cc23)c(OC)c1, the EC50 was over 10 µM. Compound Fc1ccc(Nc2ccnc3ccc(C(F)(F)F)cc23)cc1F has an EC50 of over 10 µM. Fc1ccccc1Nc1ccnc2ccc(C(F)(F)F)cc12 gave an EC50 of over 10 µM. Compound COc1cc2nccc(Nc3cccc(C(C)=O)c3)c2cc1OC has an EC50 of 4.8 µM. In the case of Fc1cccc(Nc2ccnc3ccc(C(F)(F)F)cc23)c1, the EC50 is reported as over 10 µM. For FC(F)(F)c1ccc2nccc(Nc3ccccc3Cl)c2c1, the EC50 was over 10 µM. In the case of N#Cc1cccc(Nc2ccnc3ccc(C(F)(F)F)cc23)c1, the EC50 is reported as over 10 µM. For FC(F)(F)c1ccc2nccc(Nc3cccc(Br)c3)c2c1, the EC50 was 6.1 µM. FC(F)(F)c1ccc2nccc(Nc3cccc(I)c3)c2c1 showed an EC50 of 6.1 µM. C#Cc1cc(Nc2ncnc3ccc(I)cc23)ccc1F gave an EC50 of 5 µM. Compound C#Cc1cc(Nc2ncnc3cc(C#N)ccc23)ccc1F has an EC50 of over 10 µM. COc1ccc(Nc2ccnc3ccc(C(F)(F)F)cc23)cc1 showed an EC50 of 7.7 µM. Fc1ccc(Nc2ccnc3ccc(C(F)(F)F)cc23)cc1 showed an EC50 of over 10 µM. In the case of C#Cc1cc(Nc2ncnc3cc(OC)c(OC)cc23)ccc1F, the EC50 is reported as 7.6 µM. In the case of COc1cc2nccc(Nc3cccc(Br)c3)c2cc1OC, the EC50 is reported as 9.8 µM.

Tested on: not listed separately
Experiment: Cytotoxicity against DENV infected human Huh-7 cells assessed as reduction in cell viability by alamar blue assay
Assay type: cell-based
Conditions: DENV-infected Huh-7 cells
For FC(F)(F)c1ccc2nccc(Nc3cccc(Cl)c3)c2c1, the CC50 was over 10 µM. COc1ccc(OC)c(Nc2ccnc3ccc(C(F)(F)F)cc23)c1 showed a CC50 of over 10 µM. With C#Cc1cccc(Nc2ncnc3cc(OC)ccc23)c1 the CC50 was over 10 µM. Work on C#Cc1cc(Nc2ncnc3cc(I)ccc23)ccc1F yielded a CC50 of over 10 µM. In the case of C#Cc1cccc(Nc2c(C#N)cnc3cc(OC)ccc23)c1, the CC50 is reported as over 10 µM. Compound CS(=O)(=O)c1cccc(Nc2ccnc3ccc(C(F)(F)F)cc23)c1 has a CC50 of over 10 µM. Fc1cc(Nc2ccnc3ccc(C(F)(F)F)cc23)ccc1Cl showed a CC50 of over 10 µM. Work on N#Cc1ccc(Nc2ccnc3ccc(C(F)(F)F)cc23)cc1 yielded a CC50 of over 10 µM. Compound Fc1cc(Cl)cc(Nc2ccnc3ccc(C(F)(F)F)cc23)c1 has a CC50 of over 10 µM. In the case of C#Cc1cccc(Nc2ncnc3ccc(OC)cc23)c1, the CC50 is reported as over 10 µM. With COc1ccc(Nc2ccnc3ccc(C(F)(F)F)cc23)c(OC)c1 the CC50 was over 10 µM. Compound Fc1ccc(Nc2ccnc3ccc(C(F)(F)F)cc23)cc1F has a CC50 of over 10 µM. Compound Fc1ccccc1Nc1ccnc2ccc(C(F)(F)F)cc12 has a CC50 of over 10 µM. COc1cc2nccc(Nc3cccc(C(C)=O)c3)c2cc1OC showed a CC50 of over 10 µM. Fc1cccc(Nc2ccnc3ccc(C(F)(F)F)cc23)c1 showed a CC50 of over 10 µM. Compound FC(F)(F)c1ccc2nccc(Nc3ccccc3Cl)c2c1 has a CC50 of over 10 µM. For N#Cc1cccc(Nc2ccnc3ccc(C(F)(F)F)cc23)c1, the CC50 was over 10 µM. In the case of FC(F)(F)c1ccc2nccc(Nc3cccc(Br)c3)c2c1, the CC50 is reported as over 10 µM. FC(F)(F)c1ccc2nccc(Nc3cccc(I)c3)c2c1 showed a CC50 of over 10 µM. C#Cc1cc(Nc2ncnc3ccc(I)cc23)ccc1F gave a CC50 of over 10 µM. In the case of C#Cc1cc(Nc2ncnc3cc(C#N)ccc23)ccc1F, the CC50 is reported as over 10 µM. COc1ccc(Nc2ccnc3ccc(C(F)(F)F)cc23)cc1 gave a CC50 of over 10 µM. Compound Fc1ccc(Nc2ccnc3ccc(C(F)(F)F)cc23)cc1 has a CC50 of over 10 µM. COc1cc(Nc2ccnc3ccc(C(F)(F)F)cc23)cc(OC)c1OC showed a CC50 of over 10 µM. For C#Cc1cc(Nc2ncnc3cc(OC)c(OC)cc23)ccc1F, the CC50 was over 10 µM. For COc1cc2nccc(Nc3cccc(Br)c3)c2cc1OC, the CC50 was over 10 µM.

Tested on: Venezuelan equine encephalitis virus
Experiment: Antiviral activity against Venezuelan equine encephalitis virus TC-83 strain infected in human U-87 MG cells assessed as reduction in viral infection measured after 18 hrs post infection by Nano luciferase assay relative to control
Assay type: functional, organism-based
Conditions: TC-83, U-87 MG
FC(F)(F)c1ccc2nccc(Nc3cccc(Cl)c3)c2c1 showed an EC50 of 4.8 µM. With COc1ccc(OC)c(Nc2ccnc3ccc(C(F)(F)F)cc23)c1 the EC50 was 1.7 µM. Work on C#Cc1cccc(Nc2ncnc3cc(OC)ccc23)c1 yielded an EC50 of over 10 µM. C#Cc1cc(Nc2ncnc3cc(I)ccc23)ccc1F showed an EC50 of over 10 µM. In the case of C#Cc1cccc(Nc2c(C#N)cnc3cc(OC)ccc23)c1, the EC50 is reported as over 10 µM. In the case of CS(=O)(=O)c1cccc(Nc2ccnc3ccc(C(F)(F)F)cc23)c1, the EC50 is reported as over 10 µM. Fc1cc(Nc2ccnc3ccc(C(F)(F)F)cc23)ccc1Cl gave an EC50 of 1.7 µM. Compound N#Cc1ccc(Nc2ccnc3ccc(C(F)(F)F)cc23)cc1 has an EC50 of over 10 µM. For Fc1cc(Cl)cc(Nc2ccnc3ccc(C(F)(F)F)cc23)c1, the EC50 was 5.8 µM. With C#Cc1cccc(Nc2ncnc3ccc(OC)cc23)c1 the EC50 was 8 µM. In the case of COc1ccc(Nc2ccnc3ccc(C(F)(F)F)cc23)c(OC)c1, the EC50 is reported as 3.4 µM. In the case of Fc1ccc(Nc2ccnc3ccc(C(F)(F)F)cc23)cc1F, the EC50 is reported as over 10 µM. Work on Fc1ccccc1Nc1ccnc2ccc(C(F)(F)F)cc12 yielded an EC50 of over 10 µM. COc1cc2nccc(Nc3cccc(C(C)=O)c3)c2cc1OC showed an EC50 of 1.3 µM. For Fc1cccc(Nc2ccnc3ccc(C(F)(F)F)cc23)c1, the EC50 was over 10 µM. With FC(F)(F)c1ccc2nccc(Nc3ccccc3Cl)c2c1 the EC50 was 6.4 µM. In the case of N#Cc1cccc(Nc2ccnc3ccc(C(F)(F)F)cc23)c1, the EC50 is reported as 2.2 µM. Work on FC(F)(F)c1ccc2nccc(Nc3cccc(Br)c3)c2c1 yielded an EC50 of 2.3 µM. With FC(F)(F)c1ccc2nccc(Nc3cccc(I)c3)c2c1 the EC50 was 1.4 µM. C#Cc1cc(Nc2ncnc3ccc(I)cc23)ccc1F showed an EC50 of over 10 µM. Work on C#Cc1cc(Nc2ncnc3cc(C#N)ccc23)ccc1F yielded an EC50 of 3.9 µM. In the case of COc1ccc(Nc2ccnc3ccc(C(F)(F)F)cc23)cc1, the EC50 is reported as 0.88 µM. For Fc1ccc(Nc2ccnc3ccc(C(F)(F)F)cc23)cc1, the EC50 was over 10 µM. Compound COc1cc(Nc2ccnc3ccc(C(F)(F)F)cc23)cc(OC)c1OC has an EC50 of 1.6 µM. Compound C#Cc1cc(Nc2ncnc3cc(OC)c(OC)cc23)ccc1F has an EC50 of 0.6 µM. COc1cc2nccc(Nc3cccc(Br)c3)c2cc1OC gave an EC50 of 4.8 µM. In the case of C#Cc1cccc(Nc2ncnc3cc(OCCOC)c(OCCOC)cc23)c1 [ERLOTINIB], the EC50 is reported as over 20 µM.

Tested on: not listed separately
Experiment: Cytotoxicity against Venezuelan equine encephalitis virus TC-83 strain infected human U-87 MG cells assessed as reduction in cell viability by alamar blue assay
Assay type: cell-based, U-87MG ATCC
Conditions: not given
With FC(F)(F)c1ccc2nccc(Nc3cccc(Cl)c3)c2c1 the CC50 was over 10 µM. For COc1ccc(OC)c(Nc2ccnc3ccc(C(F)(F)F)cc23)c1, the CC50 was over 10 µM. With C#Cc1cccc(Nc2ncnc3cc(OC)ccc23)c1 the CC50 was over 10 µM. C#Cc1cc(Nc2ncnc3cc(I)ccc23)ccc1F gave a CC50 of over 10 µM. C#Cc1cccc(Nc2c(C#N)cnc3cc(OC)ccc23)c1 gave a CC50 of over 10 µM. CS(=O)(=O)c1cccc(Nc2ccnc3ccc(C(F)(F)F)cc23)c1 gave a CC50 of over 10 µM. For Fc1cc(Nc2ccnc3ccc(C(F)(F)F)cc23)ccc1Cl, the CC50 was over 10 µM. In the case of N#Cc1ccc(Nc2ccnc3ccc(C(F)(F)F)cc23)cc1, the CC50 is reported as over 10 µM. Fc1cc(Cl)cc(Nc2ccnc3ccc(C(F)(F)F)cc23)c1 gave a CC50 of over 10 µM. In the case of C#Cc1cccc(Nc2ncnc3ccc(OC)cc23)c1, the CC50 is reported as over 10 µM. For COc1ccc(Nc2ccnc3ccc(C(F)(F)F)cc23)c(OC)c1, the CC50 was over 10 µM. With Fc1ccc(Nc2ccnc3ccc(C(F)(F)F)cc23)cc1F the CC50 was over 10 µM. Compound Fc1ccccc1Nc1ccnc2ccc(C(F)(F)F)cc12 has a CC50 of over 10 µM. With COc1cc2nccc(Nc3cccc(C(C)=O)c3)c2cc1OC the CC50 was over 10 µM. With Fc1cccc(Nc2ccnc3ccc(C(F)(F)F)cc23)c1 the CC50 was over 10 µM. Work on FC(F)(F)c1ccc2nccc(Nc3ccccc3Cl)c2c1 yielded a CC50 of over 10 µM. Compound N#Cc1cccc(Nc2ccnc3ccc(C(F)(F)F)cc23)c1 has a CC50 of over 10 µM. In the case of FC(F)(F)c1ccc2nccc(Nc3cccc(Br)c3)c2c1, the CC50 is reported as over 10 µM. Work on FC(F)(F)c1ccc2nccc(Nc3cccc(I)c3)c2c1 yielded a CC50 of over 10 µM. C#Cc1cc(Nc2ncnc3ccc(I)cc23)ccc1F gave a CC50 of over 10 µM. C#Cc1cc(Nc2ncnc3cc(C#N)ccc23)ccc1F gave a CC50 of over 10 µM. Compound COc1ccc(Nc2ccnc3ccc(C(F)(F)F)cc23)cc1 has a CC50 of over 10 µM. Work on Fc1ccc(Nc2ccnc3ccc(C(F)(F)F)cc23)cc1 yielded a CC50 of over 10 µM. Work on COc1cc(Nc2ccnc3ccc(C(F)(F)F)cc23)cc(OC)c1OC yielded a CC50 of over 10 µM. Work on C#Cc1cc(Nc2ncnc3cc(OC)c(OC)cc23)ccc1F yielded a CC50 of over 10 µM. COc1cc2nccc(Nc3cccc(Br)c3)c2cc1OC gave a CC50 of over 10 µM.
